Laboratory results published in patent publication US7524864B2, “Methods of treating sleep disorders” (Hypnion, Inc., priority 2004, dated 2009).
Where two headings read alike, the source gives them in different places.

Tests used:
[1] = molecular target: T1, human recombinant M1 expressed in CHO cells (Homo sapiens, UniProt P11229); settings: reference compounds; read-out: Ki of reference compounds in M1 binding assay; cited from earlier work
T1 construct: purchased PerkinElmer, Inc., Wellesley, Mass; host or cells: CHO cells
T1 sequence (P11229 1-460): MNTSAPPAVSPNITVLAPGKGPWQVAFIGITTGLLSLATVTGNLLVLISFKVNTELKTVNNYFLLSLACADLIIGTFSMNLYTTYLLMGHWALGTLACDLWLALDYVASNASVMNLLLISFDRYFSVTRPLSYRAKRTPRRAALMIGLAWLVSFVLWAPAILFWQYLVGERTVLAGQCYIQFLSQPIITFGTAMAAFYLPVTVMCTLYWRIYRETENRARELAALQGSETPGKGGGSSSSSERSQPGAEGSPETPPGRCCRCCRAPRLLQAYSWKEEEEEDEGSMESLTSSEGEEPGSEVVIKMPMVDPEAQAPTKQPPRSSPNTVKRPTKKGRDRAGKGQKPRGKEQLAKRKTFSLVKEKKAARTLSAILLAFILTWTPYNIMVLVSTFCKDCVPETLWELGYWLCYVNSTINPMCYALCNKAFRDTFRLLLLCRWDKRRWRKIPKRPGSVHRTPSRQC

[2] = molecular target: T2, H1 receptor (Bos taurus, UniProt P30546); experiment: H1 histamine receptor competitive binding assay ([3H]pyrilamine displacement); parameters: species or system bovine
T2 construct: the receptors are obtained from bovine cerebellar membrane tissue; from tissue; host or cells: bovine cerebellar membranes
T2 sequence (P30546 whole entry): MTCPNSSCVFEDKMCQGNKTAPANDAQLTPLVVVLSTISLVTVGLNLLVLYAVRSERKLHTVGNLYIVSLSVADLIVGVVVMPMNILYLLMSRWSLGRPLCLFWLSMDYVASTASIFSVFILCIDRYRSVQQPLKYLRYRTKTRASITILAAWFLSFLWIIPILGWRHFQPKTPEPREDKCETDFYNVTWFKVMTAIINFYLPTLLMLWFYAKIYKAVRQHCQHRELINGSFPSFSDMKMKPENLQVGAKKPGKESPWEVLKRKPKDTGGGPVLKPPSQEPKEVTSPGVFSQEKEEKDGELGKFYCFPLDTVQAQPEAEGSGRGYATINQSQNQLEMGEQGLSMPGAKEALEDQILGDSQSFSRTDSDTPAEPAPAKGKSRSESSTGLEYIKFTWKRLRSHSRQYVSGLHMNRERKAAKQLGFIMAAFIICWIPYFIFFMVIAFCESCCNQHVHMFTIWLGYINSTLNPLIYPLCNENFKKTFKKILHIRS

[3] = molecular target: T1, human recombinant M1 expressed in CHO cells; experiment: M1 muscarinic receptor binding assay ([3H]-scopolamine, N-methyl chloride displacement); settings: Table 5; read-out: M1 inhibition constant Ki
[4] = molecular target: T3, human recombinant M2 expressed in CHO cells (Homo sapiens, UniProt P08172); experiment: M2 muscarinic receptor binding assay ([3H]-scopolamine, N-methyl chloride displacement); settings: Table 5; read-out: M2 inhibition constant Ki
T3 construct: purchased PerkinElmer, Inc., Wellesley, Mass; host or cells: CHO cells
T3 sequence (P08172 1-466): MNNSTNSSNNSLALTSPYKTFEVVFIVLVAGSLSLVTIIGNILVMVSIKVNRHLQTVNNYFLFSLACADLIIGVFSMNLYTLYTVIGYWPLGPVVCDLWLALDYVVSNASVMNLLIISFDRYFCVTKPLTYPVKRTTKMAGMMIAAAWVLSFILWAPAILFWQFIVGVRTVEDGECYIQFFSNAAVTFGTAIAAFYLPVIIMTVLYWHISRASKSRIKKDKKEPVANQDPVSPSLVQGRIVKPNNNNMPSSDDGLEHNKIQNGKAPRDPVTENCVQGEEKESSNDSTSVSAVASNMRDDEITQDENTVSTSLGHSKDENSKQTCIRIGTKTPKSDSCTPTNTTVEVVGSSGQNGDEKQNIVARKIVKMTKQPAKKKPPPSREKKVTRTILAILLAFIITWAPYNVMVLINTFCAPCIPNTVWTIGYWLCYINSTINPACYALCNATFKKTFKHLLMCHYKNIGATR

[5] = molecular target: T4, human recombinant M3 expressed in CHO cells (Homo sapiens, UniProt P20309); experiment: M3 muscarinic receptor binding assay ([3H]-scopolamine, N-methyl chloride displacement); settings: Table 5; read-out: M3 inhibition constant Ki
T4 construct: purchased PerkinElmer, Inc., Wellesley, Mass; host or cells: CHO cells
T4 sequence (P20309 whole entry): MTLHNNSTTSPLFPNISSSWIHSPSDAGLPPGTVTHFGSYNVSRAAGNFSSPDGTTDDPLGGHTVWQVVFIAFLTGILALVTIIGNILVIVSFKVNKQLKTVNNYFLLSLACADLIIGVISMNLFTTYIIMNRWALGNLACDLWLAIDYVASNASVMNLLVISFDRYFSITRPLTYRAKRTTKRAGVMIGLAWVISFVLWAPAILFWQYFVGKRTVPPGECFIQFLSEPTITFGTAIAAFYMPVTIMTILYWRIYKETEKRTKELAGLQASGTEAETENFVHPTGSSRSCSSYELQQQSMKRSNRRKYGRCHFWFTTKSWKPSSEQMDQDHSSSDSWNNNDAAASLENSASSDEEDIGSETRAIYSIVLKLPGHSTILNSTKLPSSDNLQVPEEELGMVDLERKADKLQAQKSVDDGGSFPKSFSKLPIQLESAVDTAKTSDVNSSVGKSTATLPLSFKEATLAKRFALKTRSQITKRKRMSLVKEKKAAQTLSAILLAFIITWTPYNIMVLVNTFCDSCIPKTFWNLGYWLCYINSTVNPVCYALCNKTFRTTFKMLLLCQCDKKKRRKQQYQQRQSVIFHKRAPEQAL

[6] = system: sleep (NREM, LUSB) in male Wistar rats; experiment: Sleep-wakefulness monitoring (SCORE-2000, EEG/EMG) in male Wistar rats; type: in vivo, rat; settings: oral, CT-18
Protocol: Sleep-wakefulness, locomotor activity and body temperature are monitored in male Wistar rats treated with a test compound (i.e., doxepin analog) initially at a concentration of 10 mg/kg. Higher and lower doses are assayed for select compounds (e.g., as high as 45 mg/kg, and as low as necessary to establish a no-effect dose). Treatments are administered at CT-18, the peak of the activity dominated period (6 hours after lights-off), and produced soporific (sleep-inducing) effects characterized by increased non-REM sleep time, increased sleep continuity, but without evidence of REM sleep inhibition or rebound insomnia.
Sleep-wakefulness, locomotor activity and body temperature are monitored in vivo with the disclosed sleep-inducing agents. Adult, male Wistar rats (250 g at time of surgery, Charles River Laboratories, Wilmington Mass.) were anesthetized (2% isoflourane in medical grade oxygen) and surgically prepared with a cranial implant to permit chronic electro-encephalogram (EEG) and electromyogram (EMG) recording. Body temperature and locomotor activity were monitored via a miniature transmitter (Mini-Mitter, Bend, Oreg.) surgically placed in the abdomen. The cranial implant consisted of stainless steel screws (two frontal [+3.2 AP from bregma, ±2.0 ML] and two occipital [−6.9 AP, ±5.5 ML]) for EEG recording. Two Teflon®-coated stainless steel wires were positioned under the nuchal trapezoid muscles for EMG recording. All leads were soldered to a miniature connector prior to surgery, and gas sterilized in ethylene oxide. The implant assembly was affixed to the skull with dental acrylic. A minimum of three weeks was allowed for surgical recovery.
Each rat is permanently housed in its own individual recording cage located within separate, ventilated compartments of custom-designed stainless steel cabinets. Each cage is enhanced with a filter-top riser and low-torque swivel-commutator. Food and water are available ad libitum. A 24-hr light-dark cycle (12 hours light, 12 hours dark) is maintained throughout the study. Animals are undisturbed for at least 48 hours before and after treatments.
Sleep and wakefulness is determined using “SCORE-2000™”(Hypnion, Worcester, Mass.)—an internet-based sleep-wake and physiological monitoring system. The system monitored amplified EEG (bandpass 1-30 Hz), integrated EMG (bandpass 10-100 Hz), body temperature and non-specific locomotor activity (LMA) via telemetry, and drinking activity, continuously and simultaneously. Arousal states are classified on-line as non-REM (NREM) sleep, REM sleep, wake, or theta-dominated wake every 10 seconds. Total drinking and locomotor activity counts, and body temperature were quantitiated and recorded each minute, using EEG feature extraction and pattern-matching algorithms. […] The classification algorithm used individually-taught EEG-arousal-state templates, plus EMG criteria to differentiate REM sleep from theta-dominated wakefulness, plus behavior-dependent contextual rules (e.g., if the animal was drinking, it is awake). Drinking and locomotor activity intensity (LMA) are recorded as discrete events every 10 seconds, while body temperature was recorded each minute. Locomotor activity was detected by a telemetry receiver (Mini-Mitter) beneath the cage. Telemetry measures (LMA and body temperature) are not part of the scoring algorithm; thus, sleep-scoring and telemetry data were independent measures.
Compounds are administered at CT-18, the peak of the activity-dominated period, in order to ensure prior wakefulness is sufficient to interact positively with hypnotic-drug effects, and sufficient time is allowed to view the time course of the treatment effect before lights-on (6 hours post-treatment). Compounds are suspended in sterile 0.25% or 0.5% methylcellulose (1-2 ml/kg). Treatments are administered orally as a bolus.
A parallel group study design is employed. […]

Structure (SMILES) | Ki [1] [nM] | specificity for H1 over the muscarinic receptors ([2]; H1 versus M1, M2, M3 Ki) | Ki ([2]; bovine H1, Table 5, read-out: H1 (bovine) inhibition constant Ki) [nM] | Ki [3] [nM] | Ki [4] [nM] | Ki [5] [nM] | LUSB (longest uninterrupted sleep bout) ([6]; 3 mg/kg) [min] | LUSB (longest uninterrupted sleep bout) ([6]; 10 mg/kg) [min] | NREM ([6]; 10 mg/kg) [min] | LUSB (longest uninterrupted sleep bout) ([6]; 30 mg/kg) [min] | NREM ([6]; 30 mg/kg) [min] | LUSB (longest uninterrupted sleep bout) ([6]; 56 mg/kg) [min] | NREM ([6]; 56 mg/kg) [min] | LUSB (longest uninterrupted sleep bout) ([6]; 100 mg/kg) [min] | NREM ([6]; 100 mg/kg) [min]
C[N+]1(C)CCC(OC(=O)C(c2ccccc2)c2ccccc2)CC1 [4-DAMP methiodide] | 0.27 |  |  |  |  |  |  |  |  |  |  |  |  |  | 
CC(C)(CN1CCC(=C2c3ccc(F)cc3CSc3ccccc32)CC1)C(=O)O.Cl [Compound 8] |  | specific for H1 over the muscarinic receptors | 50.6 | > 10000 | > 10000 | > 10000 | 4.7 ± 3.2 | 6.3 ± 1.7 | 20 ± 5 | 10.9 ± 2.3 | 41 ± 9 | 9.3 ± 2.2 | 57 ± 7 | 13.2 ± 2.8 | 52 ± 8
